System: Acinetobacter baumannii strains
Assay: Antibiotic susceptibility test (CLSI disk diffusion test method, read per CLSI 2016)
Format: cell-based
Experimental: Strain identification was performed using a kit such as AT 32 GN system (bioMérieux, Marcy l'Etoile, France). […] In Table 2 below, S, I, and R are the results obtained by evaluating susceptibility to the antibacterial agents, in which ‘S’ means susceptible, ‘I’ means intermediate, and ‘R’ means resistant.
Strain identification was performed using a kit such as ATB 32 GN system (bioMédrieux, Marcy l'Etoile, France). […] In Table 6 below, S, I, and R are the results obtained by evaluating susceptibility to the antibacterial agents, in which ‘S’ means susceptible, ‘I’ means intermediate, and ‘R’ means resistant.
Strain identification was performed using a kit such as ATB 32 GN system (bioMérieux, Marcy l'Etoile, France). […] In Table 10 below, S, I, and R are the results obtained by evaluating susceptibility to the antibacterial agents, in which ‘S’ means susceptible, T means intermediate, and ‘R’ means resistant.

C[C@@H](O)[C@H]1C(=O)N2C(C(=O)O)=C(SCCN=CN)C[C@H]12 [Imipenem, imipenem]
antibiotic susceptibility class (host strain YMC14/01/C29): R
antibiotic susceptibility class (host strain YMC14/01/IP122): R
antibiotic susceptibility class (host strain YMC14/01/L8): R
antibiotic susceptibility class (host strain YMC14/01/P31): R
antibiotic susceptibility class (host strain YMC14/01/P117): R
antibiotic susceptibility class (host strain YMC14/01/P224): R
antibiotic susceptibility class (host strain YMC14/01/P727): R
antibiotic susceptibility class (host strain YMC14/01/P728): R
antibiotic susceptibility class (host strain YMC14/01/R130): R
antibiotic susceptibility class (host strain YMC14/01/R160): R
antibiotic susceptibility class (host strain YMC14/01/R198): R
antibiotic susceptibility class (host strain YMC14/01/R257): R
antibiotic susceptibility class (host strain YMC14/01/R270): R
antibiotic susceptibility class (host strain YMC14/01/R324): R
antibiotic susceptibility class (host strain YMC14/01/R443): R
antibiotic susceptibility class (host strain YMC14/01/R451): R
antibiotic susceptibility class (host strain YMC14/01/R560): R
antibiotic susceptibility class (host strain YMC14/01/R617): R
antibiotic susceptibility class (host strain YMC14/01/R671): R
antibiotic susceptibility class (host strain YMC14/01/R732): R
antibiotic susceptibility class (host strain YMC14/01/R767): R
antibiotic susceptibility class (host strain YMC14/01/R904): R
antibiotic susceptibility class (host strain YMC14/01/R905): R
antibiotic susceptibility class (host strain YMC14/01/R921): R
antibiotic susceptibility class (host strain YMC14/01/R941): R
antibiotic susceptibility class (host strain YMC14/01/R958): R
antibiotic susceptibility class (host strain YMC14/01/R1006): R
antibiotic susceptibility class (host strain YMC14/01/R1199): R
antibiotic susceptibility class (host strain YMC14/01/R1659): R
antibiotic susceptibility class (host strain YMC14/01/R1722): R
antibiotic susceptibility class (host strain YMC14/01/R1752): R
antibiotic susceptibility class (host strain YMC14/01/R2429): R
antibiotic susceptibility class (host strain YMC14/01/R2572): R
antibiotic susceptibility class (host strain YMC14/01/R2855): R
antibiotic susceptibility class (host strain YMC14/01/R2945): R
antibiotic susceptibility class (host strain YMC14/01/R3007): R
antibiotic susceptibility class (host strain YMC14/01/R3129): R
antibiotic susceptibility class (host strain YMC14/01/R3317): R
antibiotic susceptibility class (host strain YMC14/01/R3474): R
antibiotic susceptibility class (host strain YMC14/01/R3574): R
antibiotic susceptibility class (host strain YMC14/01/U313): R
antibiotic susceptibility class (host strain YMC14/01/U318): R
antibiotic susceptibility class (host strain YMC14/02/L18): R
antibiotic susceptibility class (host strain YMC14/02/P47): R
antibiotic susceptibility class (host strain YMC14/02/R1860): R
antibiotic susceptibility class (host strain YMC14/02/R2417): R
antibiotic susceptibility class (host strain YMC14/02/R2599): R
antibiotic susceptibility class (host strain YMC14/02/R2668): R
antibiotic susceptibility class (host strain YMC14/02/R2758): R
antibiotic susceptibility class (host strain YMC14/02/R2781): R
antibiotic susceptibility class (host strain YMC14/02/R3106): R
antibiotic susceptibility class (host strain YMC14/02/R3419): R
antibiotic susceptibility class (host strain YMC14/02/U1607): R
antibiotic susceptibility class (host strain YMC14/03/L9): R
antibiotic susceptibility class (host strain YMC14/03/P471): R
antibiotic susceptibility class (host strain YMC14/03/R122): R
antibiotic susceptibility class (host strain YMC14/03/R217): R
antibiotic susceptibility class (host strain YMC14/03/R380): R
antibiotic susceptibility class (host strain YMC14/03/R618): R
antibiotic susceptibility class (host strain YMC14/03/R2144): R
antibiotic susceptibility class (host strain YMC14/03/U4616): R
antibiotic susceptibility class (host strain YMC14/04/R1078): R
antibiotic susceptibility class (host strain YMC14/04/R1080): R
antibiotic susceptibility S/I/R (host strain YMC14/06/R2359): R
susceptibility category (S/I/R) (host strain YMC14/06/R2359): R
antibiotic susceptibility S/I/R (host strain YMC14/08/R1169): R
susceptibility category (S/I/R) (host strain YMC14/08/R1169): R
antibiotic susceptibility S/I/R (host strain YMC14/08/T90): R
susceptibility category (S/I/R) (host strain YMC14/08/T90): R
antibiotic susceptibility S/I/R (host strain YMC15/02/R436): R
susceptibility category (S/I/R) (host strain YMC15/02/R436): R
antibiotic susceptibility S/I/R (host strain YMC15/02/T28): R
susceptibility category (S/I/R) (host strain YMC15/02/T28): R
antibiotic susceptibility S/I/R (host strain YMC15/03/R1604): R
susceptibility category (S/I/R) (host strain YMC15/03/R1604): R
antibiotic susceptibility S/I/R (host strain YMC15/09/R1869): R
susceptibility category (S/I/R) (host strain YMC15/09/R1869): R
antibiotic susceptibility S/I/R (host strain YMC16/01/P11): R
susceptibility category (S/I/R) (host strain YMC16/01/P11): R
antibiotic susceptibility S/I/R (host strain YMC16/01/R123): R
susceptibility category (S/I/R) (host strain YMC16/01/R123): R
antibiotic susceptibility S/I/R (host strain YMC16/01/R198): R
susceptibility category (S/I/R) (host strain YMC16/01/R198): R
antibiotic susceptibility S/I/R (host strain YMC16/01/R353): R
susceptibility category (S/I/R) (host strain YMC16/01/R353): R
antibiotic susceptibility S/I/R (host strain YMC16/01/R380): R
susceptibility category (S/I/R) (host strain YMC16/01/R380): R
antibiotic susceptibility S/I/R (host strain YMC16/01/R397): R
susceptibility category (S/I/R) (host strain YMC16/01/R397): R
antibiotic susceptibility S/I/R (host strain YMC16/01/R405): R
susceptibility category (S/I/R) (host strain YMC16/01/R405): R
antibiotic susceptibility S/I/R (host strain YMC16/03/R4461): R
susceptibility category (S/I/R) (host strain YMC16/03/R4461): R
antibiotic susceptibility S/I/R (host strain YMC16/05/R2210): R
susceptibility category (S/I/R) (host strain YMC16/05/R2210): R
antibiotic susceptibility S/I/R (host strain YMC16/07/R2512): R
susceptibility category (S/I/R) (host strain YMC16/07/R2512): R
antibiotic susceptibility S/I/R (host strain YMC16/09/R2471): R
susceptibility category (S/I/R) (host strain YMC16/09/R2471): R
antibiotic susceptibility S/I/R (host strain YMC16/10/R2537): R
susceptibility category (S/I/R) (host strain YMC16/10/R2537): R
antibiotic susceptibility S/I/R (host strain YMC16/12/B11422): R
susceptibility category (S/I/R) (host strain YMC16/12/B11422): R
antibiotic susceptibility S/I/R (host strain YMC16/12/B11449): R
susceptibility category (S/I/R) (host strain YMC16/12/B11449): R
antibiotic susceptibility S/I/R (host strain YMC16/12/B13325): R
susceptibility category (S/I/R) (host strain YMC16/12/B13325): R
antibiotic susceptibility S/I/R (host strain YMC16/12/P503): R
susceptibility category (S/I/R) (host strain YMC16/12/P503): R
antibiotic susceptibility S/I/R (host strain YMC16/12/R4637): R
susceptibility category (S/I/R) (host strain YMC16/12/R4637): R
antibiotic susceptibility S/I/R (host strain YMC17/01/B8053): R
susceptibility category (S/I/R) (host strain YMC17/01/B8053): R
antibiotic susceptibility S/I/R (host strain YMC17/01/B10087): R
susceptibility category (S/I/R) (host strain YMC17/01/B10087): R
antibiotic susceptibility S/I/R (host strain YMC17/01/B12075): R
susceptibility category (S/I/R) (host strain YMC17/01/B12075): R
antibiotic susceptibility S/I/R (host strain YMC17/01/B13454): R
susceptibility category (S/I/R) (host strain YMC17/01/B13454): R
antibiotic susceptibility S/I/R (host strain YMC17/01/P518): R
susceptibility category (S/I/R) (host strain YMC17/01/P518): R
antibiotic susceptibility S/I/R (host strain YMC17/01/R2812): R
susceptibility category (S/I/R) (host strain YMC17/01/R2812): R
antibiotic susceptibility S/I/R (host strain YMC17/02/B14): R
susceptibility category (S/I/R) (host strain YMC17/02/B14): R
antibiotic susceptibility S/I/R (host strain YMC17/02/B87): R
susceptibility category (S/I/R) (host strain YMC17/02/B87): R
antibiotic susceptibility S/I/R (host strain YMC17/02/B721): R
susceptibility category (S/I/R) (host strain YMC17/02/B721): R
antibiotic susceptibility S/I/R (host strain YMC17/02/B4039): R
susceptibility category (S/I/R) (host strain YMC17/02/B4039): R
antibiotic susceptibility S/I/R (host strain YMC17/02/B4520): R
susceptibility category (S/I/R) (host strain YMC17/02/B4520): R
antibiotic susceptibility S/I/R (host strain YMC17/02/B4864): S
susceptibility category (S/I/R) (host strain YMC17/02/B4864): S
antibiotic susceptibility S/I/R (host strain YMC17/02/B8414): R
susceptibility category (S/I/R) (host strain YMC17/02/B8414): R
antibiotic susceptibility S/I/R (host strain YMC17/02/P523): R
susceptibility category (S/I/R) (host strain YMC17/02/P523): R
antibiotic susceptibility S/I/R (host strain YMC17/02/R541): R
susceptibility category (S/I/R) (host strain YMC17/02/R541): R
antibiotic susceptibility S/I/R (host strain YMC17/02/R2392): R
susceptibility category (S/I/R) (host strain YMC17/02/R2392): R
antibiotic susceptibility S/I/R (host strain YMC17/03/B4730): R
susceptibility category (S/I/R) (host strain YMC17/03/B4730): R
antibiotic susceptibility S/I/R (host strain YMC17/03/B5000): R
susceptibility category (S/I/R) (host strain YMC17/03/B5000): R
antibiotic susceptibility S/I/R (host strain YMC17/03/P971): R
susceptibility category (S/I/R) (host strain YMC17/03/P971): R
antibiotic susceptibility S/I/R (host strain YMC17/03/R348): R
susceptibility category (S/I/R) (host strain YMC17/03/R348): R
antibiotic susceptibility S/I/R (host strain YMC17/03/R585): R
susceptibility category (S/I/R) (host strain YMC17/03/R585): R
antibiotic susceptibility S/I/R (host strain YMC17/03/R1888): R
susceptibility category (S/I/R) (host strain YMC17/03/R1888): R
antibiotic susceptibility S/I/R (host strain YMC17/03/R3279): R
susceptibility category (S/I/R) (host strain YMC17/03/R3279): R
antibiotic susceptibility S/I/R (host strain YMC17/03/R4077): R
susceptibility category (S/I/R) (host strain YMC17/03/R4077): R
antibiotic susceptibility S/I/R (host strain YMC17/03/R4607): R
susceptibility category (S/I/R) (host strain YMC17/03/R4607): R
antibiotic susceptibility S/I/R (host strain YMC17/04/R488): R
susceptibility category (S/I/R) (host strain YMC17/04/R488): R
antibiotic susceptibility S/I/R (host strain YMC17/04/R640): R
susceptibility category (S/I/R) (host strain YMC17/04/R640): R
antibiotic susceptibility S/I/R (host strain YMC/17/05/R1095): R
susceptibility category (S/I/R) (host strain YMC/17/05/R1095): R

Reference: patent publication US20240000872A1, “NOVEL BACTERIOPHAGE THAT LYSES ACINETOBACTER GENUS BACTERIA HAVING RESISTANCE TO ANTIBIOTICS” (priority 2020, published 2024)
